Experimental data: patent US8686048B2, “Immunomodulator and anti-inflammatory compounds” (Rhizen Pharmaceuticals SA, priority 2010, dated 2014)

Key:
h-DHODH = molecular target: T1, h-DHODH (Homo sapiens, UniProt Q02127); assay: Dihydro-orotate dehydrogenase inhibition assay (U937 membrane preparations, DCIP reduction); type: biochemical; details: U937 membrane preparation; for inhibition at 0.3 µM: compound tested at 0.3 uM (footnote *)
T1 construct: endogenous in cells; host or cells: U937 cells (membrane fraction, solubilised with 1% octyl glucoside)
T1 sequence (Q02127 whole entry): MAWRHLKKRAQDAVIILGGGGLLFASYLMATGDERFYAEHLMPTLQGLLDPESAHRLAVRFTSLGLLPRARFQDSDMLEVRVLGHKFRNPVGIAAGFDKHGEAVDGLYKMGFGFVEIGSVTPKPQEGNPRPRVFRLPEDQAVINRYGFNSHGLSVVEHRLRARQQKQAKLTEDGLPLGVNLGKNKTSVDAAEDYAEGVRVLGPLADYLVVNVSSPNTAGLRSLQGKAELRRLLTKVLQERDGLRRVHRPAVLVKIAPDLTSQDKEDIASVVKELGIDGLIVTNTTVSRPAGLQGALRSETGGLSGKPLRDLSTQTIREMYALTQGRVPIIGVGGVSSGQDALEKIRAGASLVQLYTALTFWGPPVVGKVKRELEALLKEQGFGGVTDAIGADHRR
Procedure: Dihydro-Orotate Dehydrogenase Inhibition Assay
Dihydro-orotate dehydrogenase (DHODH) catalyzes the […] of dihydro-orotate to orotate during de novo biosynthesis of pyrimidines Inhibition of DHODH activity in U937 membrane preparations was measured by the dihydro-orotate driven reduction of 2,6 dichloroindophenol (DCIP).
U937 cells were homogenized in 20 mM Tris/HCl (pH 7.2) containing 1 mM EDTA. […] Following washes, the pellet was dissolved in 20 mM Tris/HCl containing 150 mM NaCl, 1 mM EDTA, and 1% octyl glucoside on ice for 1 h. Particulate matter was removed by centrifugation at 100000×g for 1 h at 4° C. […] The mixture was incubated at 37° C. for 4 h before measuring the change in absorbance on a plate reader (BMG Labtech., Germany) at 600 nm. Data were analyzed using GraphPad Prism. IC50 for each compound was determined based on the percent inhibition of dihydro-orotate […].

IL-17 = assay: Inhibition of IL-17 release from mouse splenocytes (PMA + ionomycin, ELISA); type: cell-based, Balb/c mice; details: Splenocyte, 10 μM, 3 h
Procedure: 2. Inhibition of IL-17 Release from Mouse Splenocytes:
Splenocytes isolated from Balb/c mice were re-suspended in RPMI medium at a concentration of 1×10^6 cells/ml and seeded in a 6 well plate. Cells were incubated with desired concentrations of the inhibitor for 15 min prior to induction with 10 ng/ml PMA+1 μM ionomycin. After a 3 h incubation, supernatant was collected and analyzed for IL-17 concentration using an ELISA kit. Data were analyzed using GraphPad Prism. IC50 values for each compound were determined based on the percent inhibition due to the test compound compared to the control.

| inhibition at 0.3 µM (h-DHODH) [%] | melting point [°C] | inhibition at 1 µM (h-DHODH) [%] | IC50 (h-DHODH) [nM] | SMILES | inhibition at 10 µM (IL-17) [%] |
| --- | --- | --- | --- | --- | --- |
| 7.14 | 138 to 140 | – | – | CCOc1cccc(-c2cc(F)c(NC(=O)c3cccc(C)c3C(=O)O)c(F)c2)c1 [Example 74, 2-(3′-ethoxy-3,5-difluorobiphenyl-4-ylcarbamoyl)-6(5)-methylbenzoic acid] | 13.8 |
| – | 168 to 173 | 53.3 | 741 | COc1cccc(-c2cc(F)c(NC(=O)c3ccccc3C(=O)O)c(F)c2)c1 [Example 1, 2-(3,5-Difluoro-3′-methoxybiphenyl-4-ylcarbamoyl)benzoic acid] | 6.13 |
| – | 180.1 to 183.4 | 2.26 | – | COc1cccc(-c2cc(F)c(NC(=O)c3nccnc3C(=O)O)c(F)c2)c1 [Example 6, 3-(3,5-Difluoro-3′-methoxybiphenyl-4-ylcarbamoyl)pyrazine-2-carboxylic acid] | 9.52 |
| – | 152.2 to 156.3 | 58.9 | – | O=C(O)c1ccccc1C(=O)Nc1c(F)cc(-c2ccccc2F)cc1F [Example 32, 2-(2′,3,5-Trifluorobiphenyl-4-ylcarbamoyl)benzoic acid] | 11.8 |
| 30.2 | 243 to 247 | – | – | COc1cccc(-c2ccc(NC(=O)c3ccccc3C(=O)O)cc2)c1 [Example 87, 2-(3′-methoxybiphenyl-4-ylcarbamoyl)benzoic acid] | 20.9 |
| – | 140.3 to 143.4 | 76.4 | 150 | O=C(O)c1ccccc1C(=O)Nc1c(F)cc(-c2cccc(OCc3ccccc3)c2)cc1F [Example 13, 2-[3′-(Benzyloxy)-3,5-difluorobiphenyl-4-ylcarbamoyl]benzoic acid] | 3.43 |
| – | 161.2 to 165.7 | 46.8 | – | O=C(O)c1ccccc1C(=O)Nc1c(F)cc(-c2ccccc2)cc1F [Example 10, 2-(3,5-Difluorobiphenyl-4-ylcarbamoyl)benzoic acid] | 6.82 |
| 11.2 | 152 to 154 | – | – | CCCOc1cccc(-c2ccc(NC(=O)c3ccccc3C(=O)O)cc2)c1 [Example 81, 2-(3′-propoxybiphenyl-4-ylcarbamoyl)benzoic acid] | 23 |
| – | 202 to 205.5 | 68 | – | O=C(O)c1cc(Cl)c(Cl)cc1C(=O)Nc1c(F)cc(-c2ccccc2Cl)cc1F [Example 30, 4,5-Dichloro-2-(2′-chloro-3,5-difluorobiphenyl-4-ylcarbamoyl)benzoic acid] | 10.3 |
| 62.2 | 154.4 to 158.5 | – | – | O=C(O)c1ccccc1C(=O)Nc1ccc(-c2cccc(OC(F)(F)F)c2)cc1 [Example 88, 2-[3′-(trifluoromethoxy)biphenyl-4-ylcarbamoyl]benzoic acid] | 19.1 |
| – | 202.3 to 206.5 | 82.9 | 147 | O=C(O)c1cc(Cl)c(Cl)cc1C(=O)Nc1c(F)cc(-c2ccccc2Cl)cc1Cl [Example 27, 4,5-Dichloro-2-(2′,3-dichloro-5-fluorobiphenyl-4-ylcarbamoyl)benzoic acid] | 12.4 |
| 33.6 | 243 to 247 | – | – | O=C(O)c1ccccc1C(=O)Nc1ccc(-c2ccccc2Cl)cc1 [Example 86, 2-(2′-chlorobiphenyl-4-ylcarbamoyl)benzoic acid] | 23.8 |
| – | 135.9 to 138.2 | 56.4 | – | CCOc1cccc(-c2cc(Cl)c(NC(=O)c3ccccc3C(=O)O)c(Cl)c2)c1 [Example 21, 2-(3,5-Dichloro-3′-ethoxybiphenyl-4-ylcarbamoyl)benzoic acid] | 17.8 |
| – | 128.3 to 132.1 | 41.8 | – | O=C(O)c1ccccc1C(=O)Nc1ccc(-c2cccc(OC(F)(F)F)c2)cc1F [Example 22, 2-[3-Fluoro-3′-(trifluoromethoxy)biphenyl-4-ylcarbamoyl]benzoic acid] | 12.9 |
| – | 153 to 156.5 | 72.2 | 83.4 | O=C(O)c1ccccc1C(=O)Nc1c(F)cc(-c2cccc(OC3CCCC3)c2)cc1F [Example 41, 2-[3′-(Cyclopentyloxy)-3,5-difluorobiphenyl-4-ylcarbamoyl]benzoic acid] | 7.16 |
| 47.6 | 116 to 119 | – | – | CCCOc1cccc(-c2ccc(NC(=O)c3ccccc3C(=O)O)c(F)c2)c1 [Example 80, 2-(3-fluoro-3′-propoxybiphenyl-4-ylcarbamoyl)benzoic acid] | 20.1 |
| – | 151 to 157 | 43 | – | CCOc1cccc(-c2ccc(NC(=O)c3ccccc3C(=O)O)c(F)c2)c1 [Example 4, 2-(3′-Ethoxy-3-fluorobiphenyl-4-ylcarbamoyl)benzoic acid] | 11.2 |
| – | 142 to 144.5 | 10.3 | – | O=C(O)c1nccnc1C(=O)Nc1c(F)cc(-c2cccc(OCc3ccccc3)c2)cc1F [Example 9, 3-[3′-(Benzyloxy)-3,5-difluorobiphenyl-4-ylcarbamoyl]pyrazine-2-carboxylic acid] | 26.9 |
| – | 143.5 to 145.1 | 85.8 | 90 | O=C(O)c1ccccc1C(=O)Nc1c(F)cc(-c2ccccc2Cl)cc1F [Example 8, 2-(2′-Chloro-3,5-difluorobiphenyl-4-ylcarbamoyl)benzoic acid] | 35.4 |
| 85 | 125 to 127 | – | 28 | O=C(O)c1ccccc1C(=O)Nc1c(F)cc(-c2cccc(OC3CC3)c2)cc1F [Example 73, 2-(3′-cyclopropoxy-3,5-difluorobiphenyl-4-ylcarbamoyl)benzoic acid] | 7.86 |
| – | 97 to 102 | 12.2 | – | COc1cccc(-c2cc(F)c(NC(=O)c3ccccc3S(=O)(=O)O)c(F)c2)c1 [Example 2, 2-(3,5-Difluoro-3′-methoxybiphenyl-4-ylcarbamoyl)benzenesulfonic acid] | 29.2 |
| – | 122 to 125 | 60.2 | – | CC(C)Oc1cccc(-c2cc(F)c(NC(=O)c3ccccc3C(=O)O)c(F)c2)c1 [Example 25, 2-(3,5-Difluoro-3′-isopropoxybiphenyl-4-ylcarbamoyl)benzoic acid] | 17.5 |
| – | 142.2 to 148.1 | 47.2 | – | O=C(O)c1ccccc1C(=O)Nc1ccc(-c2ccccc2F)cc1OC(F)(F)F [Example 23, 2-[2′-Fluoro-3-(trifluoromethoxy)biphenyl-4-ylcarbamoyl]benzoic acid] | 15 |
| – | 153 to 156.5 | 74.4 | 178 | O=C(O)c1ccccc1C(=O)Nc1c(F)cc(-c2cccc(OC(F)(F)F)c2)cc1Cl [Example 39, 2-[3-Chloro-5-fluoro-3′-(trifluoromethoxy)biphenyl-4-ylcarbamoyl]benzoic acid] | 5.87 |
| – | 163 to 168 | 62.2 | 294 | COc1cccc(-c2cc(Cl)c(NC(=O)c3ccccc3C(=O)O)c(Cl)c2)c1 [Example 18, 2-(3,5-Dichloro-3′-methoxybiphenyl-4-ylcarbamoyl)benzoic acid] | 12.1 |
| 44 | 207 to 210 | – | – | CCOc1cccc(-c2cc(F)c(NC(=O)c3ncccc3C(=O)O)c(F)c2)c1 [Example 76, 2-(3′-ethoxy-3,5-difluorobiphenyl-4-ylcarbamoyl)nicotinic acid] | 7.88 |
| 32.9 | 158 to 160 | – | – | CCSc1cccc(-c2c(F)c(F)c(NC(=O)c3ccccc3C(=O)O)c(F)c2F)c1 [Example 78, 2-[3′-(ethylthio)-2,3,5,6-tetrafluorobiphenyl-4-ylcarbamoyl]benzoic acid] | 11.1 |
| – | 185.4 to 193.6 | 40.2 | – | O=C(O)c1ccccc1C(=O)Nc1c(Cl)cc(-c2ccccc2F)cc1Cl [Example 24, 2-(3,5-Dichloro-2′-fluorobiphenyl-4-ylcarbamoyl)benzoic acid] | 8.46 |
| – | 137.8 to 142.1 | 84.8 | 53.5 | CCSc1cccc(-c2cc(F)c(NC(=O)c3ccccc3C(=O)O)c(F)c2)c1 [Example 71, 2-[3′-(ethylthio)-3,5-difluorobiphenyl-4-ylcarbamoyl]benzoic acid] | 27.8 |
